Literature values, collected in US20070225258A1, “COMPOSITIONS COMPRISING BISPHOSPHONATE AND AN ANTIFOLATE” (PROPRIUS PHARMACEUTICALS, INC., priority 2006, published 2007).

System: patients with RA

CN(Cc1cnc2nc(N)nc(N)c2n1)c1ccc(C(=O)N[C@@H](CCC(=O)O)C(=O)O)cc1 [methotrexate]
Proportion of RA patients in whom treatment is effective: effective in only one in three patients
